Columns and labels:
MV4-11 cells = assay: MV4-11 Cell Cytotoxicity Assay; assay type: cell-based; conditions: Homo sapiens, 72 h incubation, CellTiter-Blue, read-out: IC50-MV-4-11 (NS)
Description: MV4-11 cells were grown in Iscove's Modified Dulbecco's Medium (IMDM) supplemented with 10% fetal bovine serum (FBS). 10,000 cells were plated per well in 96-well flat-bottom sterile culture plates with low-evaporation lids. After 24 h, inhibitors and a vehicle control (0.5% DMSO) were added and the cells were incubated for 72 h at 37° C. in 5% CO2. Inhibitors were examined in triplicate at a maximal concentration of 50 μM, followed by 1:2 dilutions in subsequent wells (25, 12.5, 6.25, 3.13, 1.56, 0.78, 0.39, 0.20 and 0.098 μM). After 72 h, the wells were treated with CellTiter-Blue® (20 μL/well), and the plates were incubated using standard cell culture conditions for 1 hour. Fluorescence was measured at 560/590 nm.

[1] = test system: normal human fibroblast (NHF) cells; assay: NHF Cell Cytotoxicity Assay; assay type: cell-based; conditions: 72 hours, CellTiter-Blue, read-out: IC50—Pooled NHF
Description: Cell viability was examined a following treatment at various concentrations of inhibitor (0.097656-50 μM) using a cell Titer-Blue cell viability assay. 1×10^4 normal human fibroblast cells per well were plated in 96-well assay plates in culture medium. All cells were grown in DMEM, IMDM and RPMI-1640 were supplemented with 10% FBS. After 24 hours, test compounds and vehicle controls were added to appropriate wells so the final volume was 100 μl in each well. The cells were cultured for the desired test exposure period (72 hours) at 37° C. and 5% CO2. The assay plates were removed from 37° C. incubator and 20 μL/well of CellTiter-Blue® Reagent was added. […] For each sample well, value was normalized between the DMSO control and the highest concentration in case of plateau and converted into a percentage. In the absence of plateau, minimum lecture is obtained from a different sample within the same experiment. For each concentration, the four replicates are averaged, and standard deviation calculated. Data was fitted to a log(inhibitor) vs response curve with variable slope model using Microsoft Excel, obtaining IC50 and Hill slope variables.
A person skilled in the art would appreciate that a higher IC50 value in this NHF assay can indicate lower off-target effects.

## CCOc1cc(C(=O)O)ccc1N(Cc1cc(C2CC2)cc(C(C)(C)C)c1)C(=O)CN(Cc1ccccc1C#N)S(=O)(=O)c1c(F)cc(F)c(F)c1F [Compound 25, 4-[(3-tert-butyl-5-cyclopropyl-phenyl)methyl-[2-[(2-cyanophenyl)methyl-(2,3,4,6-tetrafluorophenyl)sulfonyl-amino]acetyl]amino]-3-ethoxy-benzoic acid]
MV4-11 cells
  IC50: 1200 to 6000 nM

## COc1cc(C(=O)O)ccc1N(Cc1cc(C2CC2)cc(C(C)(C)C)c1)C(=O)CN(Cc1cnccc1C(F)(F)F)S(=O)(=O)c1c(F)c(F)cc(F)c1F [Compound 46, 4-(N-(3-(tert-butyl)-5-cyclopropylbenzyl)-2-((2,3,5,6-tetrafluoro-N-((4-(trifluoromethyl)pyridin-3-yl)methyl)phenyl)sulfonamido)acetamido)-3-methoxy benzoic acid]
MV4-11 cells
  IC50: > 6000 nM

## CCOc1cc(C(=O)O)ccc1N(Cc1cc(C2CC2)cc(N2CCCC2)c1)C(=O)CN(Cc1ccccc1C#N)S(=O)(=O)c1c(Br)cc(F)c(F)c1F [Compound 36, 4-[[2-[(6-bromo-2,3,4-trifluoro-phenyl)sulfonyl-[(2-cyanophenyl)methyl]amino]acetyl]-[(3-cyclopropyl-5-pyrrolidin-1-yl-phenyl)methyl]amino]-3-ethoxy-benzoic acid]
MV4-11 cells
  IC50: 1200 to 6000 nM
[1]
  IC50: ≥ 24000 nM

## CCOc1cc(C(=O)O)ccc1NC(=O)CN(Cc1ccccc1C#N)S(=O)(=O)c1cc(F)c(F)c(F)c1F [Compound 48, 4-(2-((N-(2-cyanobenzyl)-2,3,4,5-tetrafluorophenyl)sulfonamido)acetamido)-3-ethoxy benzoic acid]
MV4-11 cells
  IC50: 1200 to 6000 nM

## O=C(O)c1ccc(N(Cc2cc(C3CC3)cc(C3CC3)c2)C(=O)CN(Cc2ccccc2Cl)S(=O)(=O)c2c(F)c(F)c(F)c(F)c2Cl)c(O)c1 [Compound 73, 4-(2-((2-chloro-N-(2-chlorobenzyl)-3,4,5,6-tetrafluorophenyl)sulfonamido)-N-(3,5-dicyclopropylbenzyl)acetamido)-3-hydroxybenzoic acid]
MV4-11 cells
  IC50: 400 to 1200 nM
[1]
  IC50: ≥ 24000 nM

## CCOc1cc(C(=O)O)c(F)cc1N(Cc1cc(C2CC2)cc(C2CC2)c1)C(=O)CN(Cc1ccccc1C#N)S(=O)(=O)c1cc(F)c(F)c(F)c1F [Compound 18, 4-[[2-[(2-cyanophenyl)methyl-(2,3,4,5-tetrafluorophenyl)sulfonyl-amino]acetyl]-[(3,5-dicyclopropylphenyl)methyl]amino]-5-ethoxy-2-fluoro-benzoic acid]
MV4-11 cells
  IC50: 400 to 1200 nM
[1]
  IC50: ≥ 24000 nM

## CCOc1cc(C(=O)O)ccc1N(Cc1cc(C2CC2)cc(C2CC2)c1)C(=O)CN(Cc1ccccc1C(F)(F)F)S(=O)(=O)c1c(Br)cc(F)c(F)c1F [Compound 21, 4-[[2-[(6-bromo-2,3,4-trifluoro-phenyl)sulfonyl-[[2-(trifluoromethyl)phenyl]methyl]amino]acetyl]-[(3,5-dicyclopropylphenyl)methyl]amino]-3-ethoxy-benzoic acid]
MV4-11 cells
  IC50: 1200 to 6000 nM
[1]
  IC50: ≥ 24000 nM

## CCOc1cc(C(=O)O)ccc1N(Cc1cc(C2CC2)cc(C2CC2)c1)C(=O)CN(Cc1c(F)cc(F)cc1F)S(=O)(=O)c1cc(F)c(F)c(F)c1F [Compound 12, 4-[(3,5-dicyclopropylphenyl)methyl-[2-[(2,3,4,5-tetrafluorophenyl)sulfonyl-[(2,4,6-trifluorophenyl)methyl]amino]acetyl]amino]-3-ethoxy-benzoic acid]
MV4-11 cells
  IC50: 400 to 1200 nM

## CCOc1cc(C(=O)O)ccc1N(Cc1cc(C2CC2)cc(C2CC2)c1)C(=O)CN(Cc1ccc(F)cc1Cl)S(=O)(=O)c1c(F)cc(F)c(F)c1F [Compound 15, 4-[[2-[(2-chloro-4-fluoro-phenyl)methyl-(2,3,4,6-tetrafluorophenyl)sulfonyl-amino]acetyl]-[(3,5-dicyclopropylphenyl)methyl]amino]-3-ethoxy-benzoic acid]
MV4-11 cells
  IC50: 1200 to 6000 nM

## CCOc1cc(C(=O)O)ccc1N(Cc1cc(C2CC2)cc(N2CCCC2)c1)C(=O)CN(Cc1ccccc1C#N)S(=O)(=O)c1c(F)cc(F)c(F)c1F [Compound 23, 4-[[2-[(2-cyanophenyl)methyl-(2,3,4,6-tetrafluorophenyl)sulfonyl-amino]acetyl]-[(3-cyclopropyl-5-pyrrolidin-1-yl-phenyl)methyl]amino]-3-ethoxy-benzoic acid]
MV4-11 cells
  IC50: 1200 to 6000 nM

## CCOc1cc(C(=O)O)ccc1N(Cc1cc(C2CC2)cc(C2CC2)c1)C(=O)CN(Cc1cccc(F)c1F)S(=O)(=O)c1cc(F)c(F)c(F)c1F [Compound 9, 4-[(3,5-dicyclopropylphenyl)methyl-[2-[(2,3-difluorophenyl)methyl-(2,3,4,5-tetrafluorophenyl)sulfonyl-amino]acetyl]amino]-3-ethoxy-benzoic acid]
MV4-11 cells
  IC50: 1200 to 6000 nM

## CCOc1cc(C(=O)O)ccc1N(Cc1cc(C2CC2)cc(C2CC2)c1)C(=O)CN(Cc1ccccc1F)S(=O)(=O)c1cc(F)c(F)c(F)c1F [Compound 11, 4-[(3,5-dicyclopropylphenyl)methyl-[2-[(2-fluorophenyl)methyl-(2,3,4,5-tetrafluorophenyl)sulfonyl-amino]acetyl]amino]-3-ethoxy-benzoic acid]
MV4-11 cells
  IC50: 1200 to 6000 nM

## CCOc1cc(C(=O)O)ccc1N(Cc1cccc(OC(C)C)c1)C(=O)CN(Cc1ccccc1C#N)S(=O)(=O)c1cc(F)c(F)c(F)c1F [Compound 33, 4-[[2-[(2-cyanophenyl)methyl-(2,3,4,5-tetrafluorophenyl)sulfonyl-amino]acetyl]-[(3-isopropoxyphenyl)methyl]amino]-3-ethoxy-benzoic acid]
MV4-11 cells
  IC50: 1200 to 6000 nM

## CCOc1cc(C(=O)O)ccc1N(Cc1cc(C2CC2)cc(N2CCCC2)c1)C(=O)CN(Cc1ccccc1C#N)S(=O)(=O)c1cc(F)c(F)c(F)c1F [Compound 22, 4-[[2-[(2-cyanophenyl)methyl-(2,3,4,5-tetrafluorophenyl)sulfonyl-amino]acetyl]-[(3-cyclopropyl-5-pyrrolidin-1-yl-phenyl)methyl]amino]-3-ethoxy-benzoic acid]
MV4-11 cells
  IC50: 400 to 1200 nM

## O=C(O)c1ccc(N(Cc2cc(C3CC3)cc(C3CC3)c2)C(=O)CN(Cc2ccccc2Cl)S(=O)(=O)c2c(F)c(F)c(F)c(F)c2Cl)cc1O [Compound 76, 4-(2-((2-chloro-N-(2-chlorobenzyl)-3,4,5,6-tetrafluorophenyl)sulfonamido)-N-(3,5-dicyclopropylbenzyl)acetamido)-2-hydroxybenzoic acid]
MV4-11 cells
  IC50: 1200 to 6000 nM
[1]
  IC50: ≥ 24000 nM

## CCOc1cc(C(=O)O)ccc1N(Cc1cccc(N2CCCC2)c1)C(=O)CN(Cc1ccccc1C#N)S(=O)(=O)c1cc(F)c(F)c(F)c1F [Compound 26, 4-[[2-[(2-cyanophenyl)methyl-(2,3,4,5-tetrafluorophenyl)sulfonyl-amino]acetyl]-[(3-pyrrolidin-1-ylphenyl)methyl]amino]-3-ethoxy-benzoic acid]
MV4-11 cells
  IC50: 400 to 1200 nM

## CCOc1cc(C(=O)O)c(F)cc1N(Cc1cc(C2CC2)cc(C2CC2)c1)C(=O)CN(Cc1ccccc1C#N)S(=O)(=O)c1c(F)cc(F)c(F)c1F [Compound 19, 4-[[2-[(2-cyanophenyl)methyl-(2,3,4,6-tetrafluorophenyl)sulfonyl-amino]acetyl]-[(3,5-dicyclopropylphenyl)methyl]amino]-5-ethoxy-2-fluoro-benzoic acid]
MV4-11 cells
  IC50: 1200 to 6000 nM

## CCOc1cc(C(=O)O)ccc1N(Cc1cc(C2CC2)cc(C2CC2)c1)C(=O)CN(Cc1ccccc1C(F)(F)F)S(=O)(=O)c1c(F)cc(F)c(F)c1F [Compound 14, 4-[(3,5-dicyclopropylphenyl)methyl-[2-[(2,3,4,6-tetrafluorophenyl)sulfonyl-[[2-(trifluoromethyl)phenyl]methyl]amino]acetyl]amino]-3-ethoxy-benzoic acid]
MV4-11 cells
  IC50: 1200 to 6000 nM

## CCOc1cc(C(=O)O)ccc1N(Cc1cc(C2CC2)cc(C2CC2)c1)C(=O)CNS(=O)(=O)c1cc(F)c(F)c(F)c1F [Compound 47, 4-(N-(3,5-dicyclopropylbenzyl)-2-((2,3,4,5-tetrafluorophenyl)sulfonamido)acetamido)-3-ethoxy benzoic acid]
MV4-11 cells
  IC50: > 6000 nM

## CCOc1cc(C(=O)O)ccc1N(Cc1cc(OC(C)C)cc(C2CC2)c1)C(=O)CN(Cc1ccccc1C#N)S(=O)(=O)c1cc(F)c(F)c(F)c1F [Compound 32, 4-[[2-[(2-cyanophenyl)methyl-(2,3,4,5-tetrafluorophenyl)sulfonyl-amino]acetyl]-[(3-cyclopropyl-5-isopropoxy-phenyl)methyl]amino]-3-ethoxy-benzoic acid]
MV4-11 cells
  IC50: 1200 to 6000 nM
